Read-outs that look alike come from different tables or passages of the source.
How the values were obtained:
Ebolavirus = details: cited from earlier work
[1] = test system: recombinant Ebolavirus that encodes green fluorescent protein; test: microbe, parasite or virus in culture; format: cell-based; details: read-out: IC50 (concentration that results in 50% inhibition of infection)
filoviruses = details: cited from earlier work

Row | SMILES | IC50 ([1]; Orthoebolavirus, HeLa) | other results
1 | C[C@H]1CCC/C=C/[C@@H]2C[C@H](O)C[C@H]2[C@H](O)/C=C/C(=O)O1 [Brefeldin A] |  | effect on Ebolavirus infectivity (Ebolavirus): loss of infectivity
2 | CSc1ccc(C2Nc3ccccc3C(=O)N2c2ccccc2)s1 (centres unmarked) [Compound 17, 2-(5-(Methylthio)thiophen-2-yl)-3-phenyl-2,3-dihydroquinazolin-4(1H)-one] | 7.4 µM | 
3 | CC(Cc1ccc(O)c(O)c1)C(C)Cc1ccc(O)c(O)c1 (centres unmarked) [NDGA] |  | effect on Ebolavirus infectivity (Ebolavirus): loss of infectivity
4 | Cc1ccc(C2Nc3ccccc3C(=O)N2c2ccccc2)s1 (centres unmarked) [Retro-2^cycl, reference compound] |  | IC50 [1]: 42.5 µM
5 | O=C1c2ccccc2NC(c2ccc(-c3ccccn3)s2)N1c1ccccc1 (centres unmarked) [Compound 19, 3-Phenyl-2-(5-(pyridin-2-yl)thiophen-2-yl)-2,3-dihydroquinazolin-4(1H)-one] | 5.6 µM | 
6 | O=C1c2ccccc2NC(c2ccc(-c3ccccc3)s2)N1c1ccccc1 (centres unmarked) [Compound 13, 3-Phenyl-2-(5-phenylthiophen-2-yl)-2,3-dihydroquinazolin-4(1H)-one] | 4.2 µM | 
7 | NC(=O)c1ncn([C@@H]2O[C@H](CO)[C@@H](O)[C@H]2O)n1 [ribavirin] |  | efficacy against filoviruses (filoviruses): ineffective
8 | Cc1nc(-c2ccc(C3Nc4ccccc4C(=O)N3c3ccccc3)s2)cs1 (centres unmarked) [Compound 21, 2-(5-(2-Methylthiazol-4-yl)thiophen-2-yl)-3-phenyl-2,3-dihydroquinazolin-4(1H)-one] | 2.3 µM | 
9 | O=C1c2ccccc2NC(c2ccc(-c3cccs3)s2)N1c1ccccc1 (centres unmarked) [Compound 18, 2-([2,2′-Bithiophen]-5-yl)-3-phenyl-2,3-dihydroquinazolin-4(1H)-one] | 4.7 µM | 
10 | O=C1c2ccccc2NC(c2ccc(-c3ccco3)s2)N1c1ccccc1 (centres unmarked) [Compound 20, 2-(5-(Furan-2-yl)thiophen-2-yl)-3-phenyl-2,3-dihydroquinazolin-4(1H)-one] | 5.4 µM | 
11 | CCc1ccc(C2Nc3ccccc3C(=O)N2c2ccccc2)s1 (centres unmarked) [Compound 7, 2-(5-Ethylthiophen-2-yl)-3-phenyl-2,3-dihydroquinazolin-4(1H)-one] | 11 µM | 

Source: US9675615B2, “2,3-dihydroquinazolin-4(1H)-one derivatives for use in the treatment of viral infections” (priority 2012, dated 2017)
